Assay: xn = mol fraction of the nth substance listed
Conditions: Liquid, Vibrating tube method

CC(C)(C)Cl [2-chloro-2-methylpropane] + CCCCCCC
mass density [kg/m3]
Conditions	283.15 K	293.15 K
100 kPa, x2 = 0.0554	842.44	830.68
100 kPa, x2 = 0.1017	832.31	820.81
100 kPa, x2 = 0.2004	811.94	800.91
100 kPa, x2 = 0.3016	792.65	782.03
100 kPa, x2 = 0.4097	773.66	763.43
100 kPa, x2 = 0.498	759.27	749.33
100 kPa, x2 = 0.5983	744.02	734.42
100 kPa, x2 = 0.7017	729.43	720.16
100 kPa, x2 = 0.7995	716.55	707.61
100 kPa, x2 = 0.9032	703.79	695.15
100 kPa, x2 = 0.9482	698.49	689.98
2000 kPa, x2 = 0.0554	844.68	833.14
2000 kPa, x2 = 0.1017	834.48	823.24
2000 kPa, x2 = 0.2004	814.1	803.29
2000 kPa, x2 = 0.3016	794.78	784.22
2000 kPa, x2 = 0.4097	775.6	765.58
2000 kPa, x2 = 0.498	761.33	751.59
2000 kPa, x2 = 0.5983	745.93	736.51
2000 kPa, x2 = 0.7017	731.35	722.23
2000 kPa, x2 = 0.7995	718.47	709.61
2000 kPa, x2 = 0.9032	705.72	697.14
2000 kPa, x2 = 0.9482	700.41	691.94
5000 kPa, x2 = 0.0554	848.13	836.88
5000 kPa, x2 = 0.1017	837.91	826.9
5000 kPa, x2 = 0.2004	817.4	806.74
5000 kPa, x2 = 0.3016	797.97	787.77
5000 kPa, x2 = 0.4097	778.78	769.03
5000 kPa, x2 = 0.498	764.17	754.81
5000 kPa, x2 = 0.5983	748.83	739.75
5000 kPa, x2 = 0.7017	734.11	725.28
5000 kPa, x2 = 0.7995	721.17	712.57
5000 kPa, x2 = 0.9032	708.35	700.04
5000 kPa, x2 = 0.9482	703.02	694.81
7000 kPa, x2 = 0.0554	850.47	839.29
7000 kPa, x2 = 0.1017	840.22	829.3
7000 kPa, x2 = 0.2004	819.61	809.03
7000 kPa, x2 = 0.3016	800.1	789.87
7000 kPa, x2 = 0.4097	780.74	771.15
7000 kPa, x2 = 0.498	766.3	756.85
7000 kPa, x2 = 0.5983	750.75	741.66
7000 kPa, x2 = 0.7017	736.02	727.16
7000 kPa, x2 = 0.7995	722.99	714.5
7000 kPa, x2 = 0.9032	710.1	701.82
7000 kPa, x2 = 0.9482	704.76	696.6
10000 kPa, x2 = 0.0554	853.75	842.85
10000 kPa, x2 = 0.1017	843.46	832.92
10000 kPa, x2 = 0.2004	822.51	812.44
10000 kPa, x2 = 0.3016	803.09	793.26
10000 kPa, x2 = 0.4097	783.69	774.21
10000 kPa, x2 = 0.498	769.05	759.84
10000 kPa, x2 = 0.5983	753.62	744.65
10000 kPa, x2 = 0.7017	738.75	730.1
10000 kPa, x2 = 0.7995	725.53	717.31
10000 kPa, x2 = 0.9032	712.59	704.57
10000 kPa, x2 = 0.9482	707.21	699.31
20000 kPa, x2 = 0.0554	864	853.69
20000 kPa, x2 = 0.1017	853.55	843.51
20000 kPa, x2 = 0.2004	832.47	822.74
20000 kPa, x2 = 0.3016	812.54	803.2
20000 kPa, x2 = 0.4097	792.93	783.9
20000 kPa, x2 = 0.498	778.04	–
20000 kPa, x2 = 0.5983	762.35	–
20000 kPa, x2 = 0.7017	747.22	–
20000 kPa, x2 = 0.7995	733.81	–
20000 kPa, x2 = 0.9032	720.64	–
20000 kPa, x2 = 0.9482	715.18	–
30000 kPa, x2 = 0.0554	873.3	–
30000 kPa, x2 = 0.1017	862.73	–
30000 kPa, x2 = 0.2004	841.24	–
30000 kPa, x2 = 0.3016	821.19	–
30000 kPa, x2 = 0.4097	801.28	–
30000 kPa, x2 = 0.498	786.13	–
30000 kPa, x2 = 0.5983	770.17	–
30000 kPa, x2 = 0.7017	754.83	–
30000 kPa, x2 = 0.7995	741.14	–
30000 kPa, x2 = 0.9032	727.83	–
30000 kPa, x2 = 0.9482	722.3	–
40000 kPa, x2 = 0.0554	881.82	–
40000 kPa, x2 = 0.1017	870.96	–
40000 kPa, x2 = 0.2004	849.41	–
40000 kPa, x2 = 0.3016	829.08	–
40000 kPa, x2 = 0.4097	808.91	–
40000 kPa, x2 = 0.498	793.67	–
40000 kPa, x2 = 0.5983	777.41	–
40000 kPa, x2 = 0.7017	761.79	–
40000 kPa, x2 = 0.7995	747.96	–
40000 kPa, x2 = 0.9032	734.49	–
40000 kPa, x2 = 0.9482	728.9	–
50000 kPa, x2 = 0.0554	889.56	–
50000 kPa, x2 = 0.1017	878.68	–
50000 kPa, x2 = 0.2004	856.76	–
50000 kPa, x2 = 0.3016	836.39	–
50000 kPa, x2 = 0.4097	815.92	–
50000 kPa, x2 = 0.498	800.51	–
50000 kPa, x2 = 0.5983	784.09	–
50000 kPa, x2 = 0.7017	768.34	–
50000 kPa, x2 = 0.7995	754.42	–
50000 kPa, x2 = 0.9032	740.62	–
50000 kPa, x2 = 0.9482	734.97	–
60000 kPa, x2 = 0.0554	896.85	–
60000 kPa, x2 = 0.1017	885.94	–
60000 kPa, x2 = 0.2004	863.93	–
60000 kPa, x2 = 0.3016	843.17	–
60000 kPa, x2 = 0.4097	822.77	–
60000 kPa, x2 = 0.498	807.05	–
60000 kPa, x2 = 0.5983	790.42	–
60000 kPa, x2 = 0.7017	774.43	–
60000 kPa, x2 = 0.7995	760.28	–
60000 kPa, x2 = 0.9032	746.42	–
60000 kPa, x2 = 0.9482	740.73	–
65000 kPa, x2 = 0.0554	900.21	–
65000 kPa, x2 = 0.1017	889.29	–
65000 kPa, x2 = 0.2004	867.33	–
65000 kPa, x2 = 0.3016	846.38	–
65000 kPa, x2 = 0.4097	825.84	–
65000 kPa, x2 = 0.498	809.97	–
65000 kPa, x2 = 0.5983	793.31	–
65000 kPa, x2 = 0.7017	777.27	–
65000 kPa, x2 = 0.7995	763.11	–
65000 kPa, x2 = 0.9032	749.1	–
65000 kPa, x2 = 0.9482	743.43	–

From the NIST ThermoML archive (doi:10.1016/j.tca.2015.06.017)
